{"source": "patent US8026231B2", "about": "“Aminothiolester compounds, pharmaceutical and cosmetic compositions containing same and uses thereof” (CNRS, priority 2000, dated 2011)", "key": {"BAF3 bcl2 cells": {"test_system": "BAF3 bcl2 cells", "test": "Growth of BAF3 bcl2 cells (viable cell count, Trypan blue)", "format": "cell-based, murine", "conditions": "50% inhibition of cell growth", "protocol": "The cells used correspond to two cell lines: metastatic cells of human prostate cancer (DU145) and murine lymphoid cells transfected with the human bcl2 gene (BAF3 bcl2).\nThe procedure used for the tests on BAF3 bcl2 cells is as follows: • 10^5 cells are incubated in the various wells of a microplate in 1 ml of culture medium. After incubation for 4 hours, the test compounds are added to the wells containing the BAF3 bcl2 cells.\nFor the BAF3 bcl2 cells, the growth is measured by counting the viable cells in the presence of 0.1% Trypan blue. The control consists of thioampal, disclosed in patent application WO 98/44919.\nThe IC50 concentration is the concentration corresponding to a 50% inhibition of cell growth."}, "L1210 cells": {"test_system": "L1210 cells", "test": "Growth of L1210 cells (viable cell count, Trypan blue)", "format": "cell-based, mouse", "conditions": "50% inhibition of growth", "protocol": "(§1) The cells used correspond to various cell lines: human lung normal embryonic fibroblasts (MRC5), mouse melanoma cells (B16), mouse lymphocytic leukaemia cells (L1210) and L1210T cells obtained by infecting L1210 cells with a retroviral vector bearing human ALDH1 cDNA.\n(§2) The procedure used for the tests on the L1210 cells is as follows: • 10^5 cells are incubated in the various wells of a microplate in 1 ml of culture medium. After incubating for 4 hours, the test compounds are added to the wells containing the L1210 cells.\n(§3) For the L1210 cells, the growth is measured by counting the viable cells in the presence of 0.1% Trypan blue.\n(§4) The IC50 concentration is the concentration corresponding to a 50% inhibition of growth of the cells."}, "L1210T cells": {"test_system": "L1210T cells", "test": "Growth of L1210T cells (L1210 bearing human ALDH1 cDNA)", "format": "cell-based, mouse", "conditions": "50% inhibition of growth", "protocol": "as §1, §2, §3, §4"}, "BAF3-b0 cells": {"test_system": "BAF3-b0 cells", "test": "Apoptosis induction (DNA fragmentation) in BAF3-b0 cells, 24 h", "format": "cell-based, mouse", "protocol": "(§5) The BAF3-bcl2 cells correspond to BAF3 cells (mouse lymphocyte cells) tranfected with the bcl2 gene. Among these cells, four lines known as H16, G18, B14 and G21 overexpress the bcl2 gene.\nHereinbelow, the cells known as BAF3-b0 correspond to BAF3 cells not transfected with the bcl2 gene.\n(§6) Whereas the BAF3-b0 cells undergo apoptosis (more than 80% of the cells) in the absence of interleukin 3 (IL3) in 16 hours [according to Collins, M. K. L., Marvel, J., Malde, P. & Lopez-Rivas, A., J. Exp. Med. 176, 1043-1051, (1992)], the BAF3-bcl2 cells show no sign of apoptosis in the absence of IL3. They are thus apoptosis-resistant.\n(§7) The procedure which was used is as follows: • The BAF3-b0 or BAF3-bcl2 cells, cultured in the presence of IL3, were labelled by a method adapted from that disclosed in Wright, S. et al., J. of Cell. Biochem. 48, 344-355, (1992).\n(§8) 10^5 cells/ml were incubated with 4.62 KBq.ml^−1 [^3H]-thymidine for 40 hours at 37° C. After two washes with culture medium, 2.5×10^6 cells were cultured in the presence of the test compound.\n(§9) After incubating for 24 hours, these cells were recovered by centrifugation at 400×g for 5 minutes and washed 3 times with PBS buffer. The cells recovered in the pellet were lysed in 2 ml of 0.1% Triton X-100, 20 mM EDTA, 5 mM Tris pH 8 and centrifuged at 30 000×g at 4° C. for 30 minutes.\n(§10) The supernatants were recovered and the pellets dissolved in 0.3 ml of 0.5N NaOH.\n(§11) Aliquots of the culture medium (1 ml), of the supernatant (0.3 ml) and of the dissolved pellet (0.1 ml) were assayed in a scintillation counter.\n(§12) The percentage of DNA fragments is calculated in the following way:\n(§13) The percentage of fragmentation of the DNA is a direct measure of the apoptosis which the cells have undergone."}, "BAF3-bcl2 G21 cells": {"test_system": "BAF3-bcl2 G21 cells", "test": "Apoptosis induction (DNA fragmentation) in BAF3-bcl2 clone G21, 24 h", "format": "cell-based, mouse", "protocol": "as §5, §6, §7, §8, §9, §10, §11, §12, §13"}, "BAF3-bcl2 H16 cells": {"test_system": "BAF3-bcl2 H16 cells", "test": "Apoptosis induction (DNA fragmentation) in BAF3-bcl2 clone H16, 24 h", "format": "cell-based, mouse", "protocol": "as §5, §6, §7, §8, §9, §10, §11, §12, §13"}, "bcl2 H16 cells": {"test_system": "bcl2 H16 cells", "test": "DNA fragmentation of bcl2 H16 cells, 6 h incubation", "format": "cell-based, mouse", "protocol": "as §5, §7, §8, §9, §10, §11, §12, §13\nThe procedure for the test given in Table 4 below is identical to the previous procedure except that the incubation time is 6 hours instead of 24 hours: […]"}, "K562 cells": {"test_system": "K562 cells", "test": "Growth of K562 cells (control, no MDR overexpression)", "format": "cell-based, human", "conditions": "increasing concentrations, 72 h, FIGS. 7 and 8", "protocol": "10^5 cells were incubated in the various wells of a microplate in 1 ml of culture medium. These are R7 cells, on the one hand, and K562 cells, on the other hand.\nAfter incubating for 4 hours, the test compound (compound of Example 1 according to the invention, on the one hand, and daunorubicin, on the other hand) was added to the wells containing the cells.\nAfter 72 hours, the cells were collected at different times.\nThe growth of the cells was measured by counting the viable cells in the presence of 0.1% Trypan blue.\nFIGS. 7 and 8 respectively represent the percentage inhibition (I %) by daunorubicin and the compound of Example 1 on the growth of the R7 and K562 cells, obtained at increasing concentrations C. The results obtained with the K562 cells are symbolized by ♦ and those obtained with the R7 cells are symbolized by ▴."}, "[1]": {"test_system": "normal human prostate cells", "test": "Combination of two compounds of the invention on normal human prostate cells", "format": "cell-based", "conditions": "2 μM", "protocol": "10^5 normal human prostate cells or 10^5 cancerous human prostate cells (DU145) are incubated in various wells of a microplate in 1 ml of culture medium.\nThe compounds are added 4 hours after placing the cells in the wells.\nAfter 72 hours, the cells are removed at different times. The DU145 cells or the normal cells are washed twice with PBS and recovered directly with 0.1M sodium chloride.\nThe effect on the growth of the DU145 cells or the normal cells is measured by protein assay according to the Lowry method (Lowry, O. H., Rosenbrough, N. J., Farr, A. L. and Randall, J. Biol. Chem. 193, 265-275, (1951)) and DNA assay by the Hoechst method (West, D. C., Sattar, A. and Kumar, S., Anal. Biochem. 147, 289-295, (1985))."}}}
{"smiles": "CSC(=O)C#CC(C)(C)N(C)C", "note": "[Example 1, S-methyl 4-dimethyl-amino-4-methyl-2-pentynethioate]", "values": [{"measurement": "IC50", "setting": "BAF3 bcl2 cells", "value": 0.25, "unit": "µM"}, {"measurement": "IC50", "setting": "L1210 cells", "value": 1.2, "unit": "µM"}, {"measurement": "IC50", "setting": "L1210T cells", "value": 1.6, "unit": "µM"}, {"measurement": "DNA fragmentation (%)", "setting": "BAF3-b0 cells; b0, 1 μM", "value": 5.0, "unit": "%"}, {"measurement": "DNA fragmentation (%)", "setting": "BAF3-b0 cells; b0, 2 μM", "value": 10.6, "unit": "%"}, {"measurement": "DNA fragmentation (%)", "setting": "BAF3-b0 cells; b0, 4 μM", "value": 46.4, "unit": "%"}, {"measurement": "DNA fragmentation (%)", "setting": "BAF3-b0 cells; b0, 8 μM", "value": 71.1, "unit": "%"}, {"measurement": "DNA fragmentation (%)", "setting": "BAF3-bcl2 G21 cells; G21, 1 μM", "value": 0, "unit": "%"}, {"measurement": "DNA fragmentation (%)", "setting": "BAF3-bcl2 G21 cells; G21, 2 μM", "value": 5.8, "unit": "%"}, {"measurement": "DNA fragmentation (%)", "setting": "BAF3-bcl2 G21 cells; G21, 4 μM", "value": 29.3, "unit": "%"}, {"measurement": "DNA fragmentation (%)", "setting": "BAF3-bcl2 G21 cells; G21, 8 μM", "value": 71.8, "unit": "%"}, {"measurement": "DNA fragmentation (%)", "setting": "BAF3-bcl2 H16 cells; H16, 1 μM", "value": 2.9, "unit": "%"}, {"measurement": "DNA fragmentation (%)", "setting": "BAF3-bcl2 H16 cells; H16, 2 μM", "value": 6.3, "unit": "%"}, {"measurement": "DNA fragmentation (%)", "setting": "BAF3-bcl2 H16 cells; H16, 4 μM", "value": 65.3, "unit": "%"}, {"measurement": "DNA fragmentation (%)", "setting": "BAF3-bcl2 H16 cells; H16, 8 μM", "value": 94.2, "unit": "%"}, {"measurement": "% fragmentation of the DNA of the bcl2 H16 cells", "setting": "bcl2 H16 cells; 50 μM", "value": 2.15, "unit": "%"}, {"measurement": "% fragmentation of the DNA of the bcl2 H16 cells", "setting": "bcl2 H16 cells; 100 μM", "value": 0, "unit": "%"}, {"measurement": "% fragmentation of the DNA of the bcl2 H16 cells", "setting": "bcl2 H16 cells; 200 μM", "value": 30.4, "unit": "%"}, {"measurement": "% fragmentation of the DNA of the bcl2 H16 cells", "setting": "bcl2 H16 cells; 400 μM", "value": 83.8, "unit": "%"}, {"measurement": "% fragmentation of the DNA of the bcl2 H16 cells", "setting": "bcl2 H16 cells; 600 μM", "value": 81.5, "unit": "%"}, {"measurement": "Inhibition of the growth of the K562 cells", "setting": "K562 cells", "value": "inhibitory effect obtained at the same concentrations on the growth of the K562 cells"}, {"measurement": "% Inhibition of normal human prostate cells", "setting": "[1]", "value": 3.7, "unit": "%"}]}
